Assay results published in patent publication US10179777B2, “3-(1H-benzimidazol-2-yl)-1H-pyridin-2-one derivatives” (MERCK PATENT GMBH, priority 2015, dated 2019).
pIC50: −log10 of the molar value. Counter-ions that a name gives are not always drawn.

What was measured:
[1] = system: ALK1-mediated SMAD1/5 phosphorylation in HUVEC cells; assay: Cell-based immunofluorescence assay for ALK1-mediated SMAD1/5 phosphorylation in HUVEC cells; settings: Homo sapiens, 1.5 ng/ml BMP-9 with compound for 2 h, % nuclei with pSMAD1/5 signal, read-out: Smad 1/5 IC50
Procedure, shortened: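 Serum-starved primary HUVEC (≤5 passages) were treated with compound (1 nM-30 μM, 10 doses, 0.5% DMSO) plus 1.5 ng/ml BMP-9 for 2 h at 37° C. Cells were then fixed and immunostained for phospho-Smad1/5 (Ser463/465), and % positive nuclei were counted by confocal imaging. Data were normalised to DMSO (0%) and 10 μM reference inhibitor (−100%).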

[2] = target: T1, ALK2 (GST-modified kinase domain ACVR1(145-509)) (Homo sapiens, UniProt Q04771); assay: ALK2 kinase inhibition assay (33P-ATP filter binding, Reaction Biology); type: biochemical; settings: casein substrate, 20 μM ATP (Km ATP), 120 min ambient temperature
T1 construct: N-terminally GST-modified kinase domain ACVR1(145-509); GST (N)
T1 sequence (Q04771 145-509): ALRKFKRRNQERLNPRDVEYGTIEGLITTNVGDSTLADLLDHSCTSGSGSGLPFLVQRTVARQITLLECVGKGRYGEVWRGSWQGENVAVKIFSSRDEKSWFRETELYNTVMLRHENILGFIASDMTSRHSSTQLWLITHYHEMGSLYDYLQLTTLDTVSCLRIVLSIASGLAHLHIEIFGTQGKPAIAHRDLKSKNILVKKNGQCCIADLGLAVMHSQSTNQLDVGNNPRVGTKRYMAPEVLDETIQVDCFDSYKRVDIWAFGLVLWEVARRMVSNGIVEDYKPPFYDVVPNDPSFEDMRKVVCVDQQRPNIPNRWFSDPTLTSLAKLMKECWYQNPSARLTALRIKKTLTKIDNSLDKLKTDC
Protocol: (§1) The protein sequences of the kinases targeted and accompanying information are described in publically available data base http://www.uniprot.org/uniprot/for ALK1 www.uniprot.org/uniprot/P37023, for ALK2 www.uniprot.org/uniprot/Q04771 and for ALK5 www.uniprot.org/uniprot/P36897. IC50 determination of the novel inhibitors described was performed at Reaction Biology Corp., Malvern, Pa., USA, with assay conditions open to public at www.reactionbiology.com/webapps/site/KinaseDetail.aspx?page=Kinases&id=1, and www.reactionbiology.com/webapps/site/Kinase Assay Protocol.aspx. In addition, they were specified previously in Anastassiadis et al. Nat. Biotechnol. 29(11): 1039-1045. doi:10.1038/nbt.2017.
A2) ALK2 Kinase Inhibition Assay
(§2) was performed similar to procedure A1 with N-terminally GST-modified kinase domain ACVR1(145-509) and 1 mg/ml Casein as substrate in reaction buffer of 20 mM HEPES pH 7.5, 10 mM MgCl2, 1 mM EGTA, 0.02% Brij, 0.02 mg/ml BSA, 0.1 mM Na3VO4, 2 mM DTT, 1% DMSO. […] Reactions were carried out at ambient temperature for 120 min, followed by spotting of the reactions onto P81 ion exchange filter paper (Whatman Inc., Picataway, N.J., USA). Unbound phosphate was removed by extensive washing of filters in 0.75% phosphoric acid. After subtraction of background derived from control reactions without enzyme activity, kinase activity data was expressed as the percent remaining kinase activity in test samples compared to vehicle (DMSO) reactions. IC50 values and curve fits were obtained using Prism (GraphPad Software).

[3] = target: T2, ALK1 (GST-modified kinase domain ACVRL1 (139-503)) (Homo sapiens, UniProt P37023); assay: ALK1 kinase inhibition assay (33P-ATP filter binding, Reaction Biology); type: biochemical; settings: casein substrate, 100 μM ATP (Km ATP), 120 min ambient temperature
T2 construct: N-terminally GST-modified kinase domain ACVRL1 (139-503); GST (N)
T2 sequence (P37023 139-503): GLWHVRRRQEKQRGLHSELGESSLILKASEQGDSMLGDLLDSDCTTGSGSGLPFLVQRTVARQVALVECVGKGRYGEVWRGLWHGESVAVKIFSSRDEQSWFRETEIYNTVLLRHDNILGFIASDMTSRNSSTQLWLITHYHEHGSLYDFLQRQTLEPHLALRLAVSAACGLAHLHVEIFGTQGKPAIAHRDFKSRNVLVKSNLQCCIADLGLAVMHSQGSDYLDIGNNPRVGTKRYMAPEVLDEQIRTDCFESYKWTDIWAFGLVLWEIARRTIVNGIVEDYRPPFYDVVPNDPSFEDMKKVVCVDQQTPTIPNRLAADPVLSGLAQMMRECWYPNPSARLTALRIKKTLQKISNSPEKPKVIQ
Protocol: as §1
A1) ALK1 Kinase Inhibition Assay
as §2, with “performed” for “performed similar to procedure A1”, “domain ACVRL1 (139-503)” for “domain ACVR1(145-509)”, “and 20” for “and 1”

[4] = target: T3, ALK5 (TGFβR1; GST-modified TGFBR1 (200-503)) (Homo sapiens, UniProt P36897); assay: ALK5 kinase inhibition assay (33P-ATP filter binding, Reaction Biology); type: biochemical; settings: casein substrate, 200 μM ATP
T3 construct: Using GST-Modified TGFBR1 (200-503); GST
T3 sequence (P36897 200-503): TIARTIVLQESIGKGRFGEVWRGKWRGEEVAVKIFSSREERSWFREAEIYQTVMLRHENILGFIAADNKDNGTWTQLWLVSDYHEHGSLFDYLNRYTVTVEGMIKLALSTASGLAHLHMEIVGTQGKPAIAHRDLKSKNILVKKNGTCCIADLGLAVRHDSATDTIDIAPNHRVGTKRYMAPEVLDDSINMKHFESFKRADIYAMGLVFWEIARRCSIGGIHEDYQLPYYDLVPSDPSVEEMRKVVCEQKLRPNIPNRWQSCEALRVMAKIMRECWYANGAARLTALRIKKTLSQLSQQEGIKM
Protocol: as §1
A3) ALK5 Kinase Inhibition Assay Was Performed Similar to Procedures A1 and A2 Using GST-Modified TGFBR1 (200-503) and 1 mg/ml Casein as Substrate at 200 μM ATP.

Row | Compound | pIC50 [1] | pIC50 [2] | pIC50 [3] | pIC50 [4]
1 | NC1CCN(c2ccc3[nH]c(-c4cc(-c5cccc(CO)c5)c[nH]c4=O)nc3c2)CC1 [Compound A26, 3-[5-(4-Amino-piperidin-1-yl)-1H-benzimidazol-2-yl]-5-(3-hydroxymethyl-phenyl)-1H-pyridin-2-one dihydrochloride] | 5.74 | 7.51 | 8.30 | 5.72
2 | CN1CCN(c2ccc3[nH]c(-c4cc(-c5cccc(CO)c5)c[nH]c4=O)nc3c2)CC1 [Compound A27, 5-(3-Hydroxymethyl-phenyl)-3-[5-(4-methyl-piperazin-1-yl)-1H-benzimidazol-2-yl]-1H-pyridin-2-one] | 6.35 | 7.92 | 7.89 | 5.77
3 | CN1CCN(c2ccc3[nH]c(-c4cc(-c5ccnc6ccccc56)c[nH]c4=O)nc3c2)CC1 [Compound A29, 3-[5-(4-Methyl-piperazin-1-yl)-1H-benzimidazol-2-yl]-5-quinolin-4-yl-1H-pyridin-2-one] | 5.43 | 7.20 | 7.04 | 5.77
4 | CN1CCCN(c2ccc3[nH]c(-c4cc(-c5cccc(CO)c5)c[nH]c4=O)nc3c2)CC1 [Compound A33, 5-(3-Hydroxymethyl-phenyl)-3-[5-(4-methyl-[1,4]diazepan-1-yl)-1H-benzimidazol-2-yl]-1H-pyridin-2-one] | 6.05 | 7.96 | 7.85 | 5.72
5 | CN1CCN(c2ccc3[nH]c(-c4cc(-c5ccc(F)c(CO)c5)c[nH]c4=O)nc3c2)CC1 [Compound A34, 5-(4-Fluoro-3-hydroxymethyl-phenyl)-3-[5-(4-methyl-piperazin-1-yl)-1H-benzimidazol-2-yl]-1H-pyridin-2-one] | 5.70 | 7.70 | 7.52 | 5.32
6 | CN1CCN(c2ccc3[nH]c(-c4cc(-c5ccc(CO)cc5)c[nH]c4=O)nc3c2)CC1 [Compound A35, 5-(4-Hydroxymethyl-phenyl)-3-[5-(4-methyl-piperazin-1-yl)-1H-benzimidazol-2-yl]-1H-pyridin-2-one] | 6.14 | 7.96 | 7.80 | 5.49
7 | CN(C)C1CCN(c2ccc3[nH]c(-c4cc(-c5cccc(CO)c5)c[nH]c4=O)nc3c2)CC1 [Compound A36, 3-[5-(4-Dimethylamino-piperidin-1-yl)-1H-benzimidazol-2-yl]-5-(3-hydroxymethyl-phenyl)-1H-pyridin-2-one formate] | 6.62 | 7.66 | 8.54 | 5.96
8 | O=c1[nH]cc(-c2ccnc3[nH]ccc23)cc1-c1nc2cc(Oc3ccncc3)ccc2[nH]1 [Compound A40, 3-[5-(Pyridin-4-yloxy)-1H-benzimidazol-2-yl]-5-(1H-pyrrolo[2,3-b]pyridin-4-yl)-1H-pyridin-2-one] | 5.28 | 7.25 | 7.14 | 5.09
9 | O=c1[nH]cc(-c2ccnc3[nH]ccc23)cc1-c1nc2cc(N3CCOCC3)ccc2[nH]1 [Compound A41, 3-(5-Morpholin-4-yl-1H-benzimidazol-2-yl)-5-(1H-pyrrolo[2,3-b]pyridin-4-yl)-1H-pyridin-2-one] | 6.72 | 8.15 | 8.00 | 6.37
10 | O=c1[nH]cc(-c2ccnc3[nH]ccc23)cc1-c1nc2cc(N3CCCCC3)ccc2[nH]1 [Compound A43, 3-(5-Piperidin-1-yl-1H-benzimidazol-2-yl)-5-(1H-pyrrolo[2,3-b]pyridin-4-yl)-1H-pyridin-2-one] | 5.74 | 7.43 | 7.35 | 6.06
11 | O=c1[nH]cc(-c2ccnc3[nH]ccc23)cc1-c1nc2cc(N3CCNCC3)ccc2[nH]1 [Compound A44, 3-(5-Piperazin-1-yl-1H-benzimidazol-2-yl)-5-(1H-pyrrolo[2,3-b]pyridin-4-yl)-1H-pyridin-2-one dihydrochloride] | 5.00 | 8.22 | 8.40 | 6.85
12 | O=c1[nH]cc(-c2cccc3[nH]ccc23)cc1-c1nc2cc(N3CCNCC3)ccc2[nH]1 [Compound A48, 5-(1H-Indol-4-yl)-3-(5-piperazin-1-yl-1H-benzimidazol-2-yl)-1H-pyridin-2-one] | 6.00 | 7.66 | 7.77 | 5.85
13 | Cc1cc2c(-c3c[nH]c(=O)c(-c4nc5cc(N6CCNCC6)ccc5[nH]4)c3)ccnc2[nH]1 [Compound A48a, 5-(2-Methyl-1H-pyrrolo[2,3-b]pyridin-4-yl)-3-(5-piperazin-1-yl-1H-benzimidazol-2-yl)-1H-pyridin-2-one] | 5.57 | 7.36 | 7.31 | 6.89
14 | CN1CCCN(c2ccc3[nH]c(-c4cc(-c5ccnc6[nH]ccc56)c[nH]c4=O)nc3c2)CC1 [Compound A49, 3-[5-(4-Methyl-[1,4]diazepan-1-yl)-1H-benzimidazol-2-yl]-5-(1H-pyrrolo-[2,3-b]pyridin-4-yl)-1H-pyridin-2-one] | 5.43 | 7.59 | 8.85 | 6.55
15 | CN1CCN(c2ccc3[nH]c(-c4cc(-c5ccnc6[nH]ccc56)c[nH]c4=O)nc3c2)CC1 [Compound A50, 3-[6-(4-Methyl-piperazin-1-yl)-1H-benzimidazol-2-yl]-5-(1H-pyrrolo-[2,3-b]pyridin-4-yl)-1H-pyridin-2-one] | 6.40 | 8.30 | 8.70 | 6.77
16 | CN1CCN(c2ccc3[nH]c(-c4cc(-c5cnc6[nH]ccc6c5)c[nH]c4=O)nc3c2)CC1 [Compound A51, 3-[6-(4-Methyl-piperazin-1-yl)-1H-benzimidazol-2-yl]-5-(1H-pyrrolo[2,3-b]-pyridin-5-yl)-1H-pyridin-2-one] | 5.25 | 7.00 | 6.92 | 5.00
